What follows are compounds tested against SAE (Homo sapiens (Human), UniProt Q9UBT2) (assay: In vitro inhibitory activity assay against SAE (SUMO-2/3 immunofluorescence in HCT116 cells)). Settings: 6 h incubation, class symbols, read-out: SUMO IF IC50.
SAE, sequence (Q9UBT2 whole entry): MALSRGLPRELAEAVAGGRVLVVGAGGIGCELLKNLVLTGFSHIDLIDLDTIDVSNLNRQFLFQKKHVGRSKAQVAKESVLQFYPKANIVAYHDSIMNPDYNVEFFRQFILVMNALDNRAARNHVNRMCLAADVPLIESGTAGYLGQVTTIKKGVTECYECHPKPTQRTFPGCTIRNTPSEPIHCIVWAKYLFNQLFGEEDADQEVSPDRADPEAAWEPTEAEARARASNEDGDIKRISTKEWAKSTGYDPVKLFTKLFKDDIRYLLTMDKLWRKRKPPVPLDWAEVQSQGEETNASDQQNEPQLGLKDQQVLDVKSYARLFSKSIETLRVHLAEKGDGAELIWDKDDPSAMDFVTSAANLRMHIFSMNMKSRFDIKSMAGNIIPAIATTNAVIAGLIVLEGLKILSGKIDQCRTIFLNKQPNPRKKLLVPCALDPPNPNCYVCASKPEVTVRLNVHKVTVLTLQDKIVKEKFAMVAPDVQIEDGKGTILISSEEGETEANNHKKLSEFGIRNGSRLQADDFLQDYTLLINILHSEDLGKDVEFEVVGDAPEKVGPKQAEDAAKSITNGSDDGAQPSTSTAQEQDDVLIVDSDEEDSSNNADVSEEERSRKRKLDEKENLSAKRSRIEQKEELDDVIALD
SAE, sequence (Q9UBE0 whole entry partner): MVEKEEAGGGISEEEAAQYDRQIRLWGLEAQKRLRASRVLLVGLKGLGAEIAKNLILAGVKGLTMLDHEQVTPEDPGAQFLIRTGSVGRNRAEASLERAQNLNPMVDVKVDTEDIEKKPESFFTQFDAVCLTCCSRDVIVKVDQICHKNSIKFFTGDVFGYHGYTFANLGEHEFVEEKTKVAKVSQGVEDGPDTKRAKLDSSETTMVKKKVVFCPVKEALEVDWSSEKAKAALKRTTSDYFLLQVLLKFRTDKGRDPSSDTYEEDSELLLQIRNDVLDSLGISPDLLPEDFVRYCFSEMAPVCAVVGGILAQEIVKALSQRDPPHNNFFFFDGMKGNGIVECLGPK
Type: cell-based
How it was run: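 HCT116 cells treated with compounds for 6 h at 37 °C, then fixed, permeabilized and immunostained for SUMO-2/3 with FITC secondary detection. Fluorescence compared with DMSO control to give inhibition rate and IC50.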
`[2H]C1([2H])CNC2(CCCc3sc(C(=O)c4cncnc4N[C@@H]4C[C@H](COS(N)(=O)=O)[C@@H](O)C4)cc32)c2cc(Cl)ccc21` (stereo partly shown) [Compound 199] gave an IC50 of no more than 50 nM. Work on `Cc1ccc2c(c1)[C@@]1(CCCc3sc(C(=O)c4cncnc4N[C@@H]4C[C@H](COS(N)(=O)=O)[C@@H](O)C4)cc31)NCC2` [Compound 202] yielded an IC50 of 50 to 200 nM. In the case of `NS(=O)(=O)OC[C@H]1C[C@@H](Nc2ncncc2C(=O)c2cc3c(s2)CCC[C@]32NCCc3ccc(C4CC4)cc32)C[C@@H]1O` [Compound 203], the IC50 is reported as 50 to 200 nM. `C#Cc1ccc2c(c1)[C@@]1(CCCc3sc(C(=O)c4cncnc4N[C@@H]4C[C@H](COS(N)(=O)=O)[C@@H](O)C4)cc31)NCC2` [Compound 204] was tested, and the IC50 was 50 to 200 nM. With `NS(=O)(=O)OC[C@H]1C[C@@H](Nc2ncncc2C(=O)c2cc3c(s2)CCC[C@]32NCCc3ccc(C(F)(F)F)cc32)C[C@@H]1O` [Compound 205] the IC50 was 50 to 200 nM. Compound `NS(=O)(=O)OC[C@H]1C[C@@H](Nc2ncncc2C(=O)c2cc3c(s2)CCC[C@]32NCCc3cc(F)c(F)cc32)C[C@@H]1O` [Compound 206] has an IC50 of no more than 50 nM. With `NS(=O)(=O)OC[C@H]1C[C@@H](Nc2ncncc2C(=O)c2cc3c(s2)CCC[C@]32NCCc3cc(F)c(Cl)cc32)C[C@@H]1O` [Compound 207] the IC50 was no more than 50 nM. `NS(=O)(=O)OC[C@H]1C[C@@H](Nc2ncncc2C(=O)c2cc3c(s2)CCC[C@]32NCCc3cc(Cl)c(Cl)cc32)C[C@@H]1O` [Compound 208] was tested, and the IC50 was no more than 50 nM. For `N#Cc1cc2c(cc1Cl)[C@@]1(CCCc3sc(C(=O)c4cncnc4N[C@@H]4C[C@H](COS(N)(=O)=O)[C@@H](O)C4)cc31)NCC2` [Compound 210], the IC50 was no more than 50 nM. In the case of `COc1cc2c(cc1Cl)[C@@]1(CCCc3sc(C(=O)c4cncnc4N[C@@H]4C[C@H](COS(N)(=O)=O)[C@@H](O)C4)cc31)NCC2` [Compound 211], the IC50 is reported as 50 to 200 nM. Work on `NS(=O)(=O)OC[C@H]1C[C@@H](Nc2ncncc2C(=O)c2cc3c(s2)CCC[C@]32NCCc3cc(F)c(Cl)c(F)c32)C[C@@H]1O` [Compound 212] yielded an IC50 of no more than 50 nM. `NS(=O)(=O)OC[C@H]1C[C@@H](Nc2ncncc2C(=O)c2cc3c(s2)CCC[C@]32NCCc3cc(Cl)c(F)cc32)C[C@@H]1O` [Compound 213] gave an IC50 of no more than 50 nM. For `NS(=O)(=O)OC[C@H]1C[C@@H](Nc2ncncc2C(=O)c2cc3c(s2)CCC[C@]32NCCc3ccncc32)C[C@@H]1O` [Compound 214], the IC50 was 50 to 200 nM. `NS(=O)(=O)OC[C@H]1C[C@@H](Nc2ncncc2C(=O)c2cc3c(s2)CCC[C@]32NCCc3cc(Cl)ncc32)C[C@@H]1O` [Compound 215] showed an IC50 of 50 to 200 nM. `NS(=O)(=O)OC[C@H]1C[C@@H](Nc2ncncc2C(=O)c2cc3c(s2)C=CC[C@]32NCCc3ccc(Cl)cc32)C[C@@H]1O` [Compound 216] gave an IC50 of no more than 50 nM. `NS(=O)(=O)OC[C@H]1C[C@@H](Nc2ncncc2C(=O)c2cc3c(s2)CC=C[C@]32NCCc3ccc(Cl)cc32)C[C@@H]1O` [Compound 217] gave an IC50 of no more than 50 nM. `NS(=O)(=O)OC[C@H]1C[C@@H](Nc2ncncc2C(=O)c2cc3c(s2)OCC[C@]32NCCc3ccc(Cl)cc32)C[C@@H]1O` [Compound 218] showed an IC50 of 50 to 200 nM. Work on `NS(=O)(=O)OC[C@H]1C[C@@H](Nc2ncncc2C(=O)c2cc3c(s2)CCC[C@]32NCC3(CC3)c3ccc(Cl)cc32)C[C@@H]1O` [Compound 219] yielded an IC50 of no more than 50 nM. For `NS(=O)(=O)OC[C@H]1C[C@@H](Nc2ncncc2C(=O)c2cc3c(s2)CCC[C@]32NC3(CC3)Cc3ccc(Cl)cc32)C[C@@H]1O` [Compound 220], the IC50 was 50 to 200 nM. Work on `NS(=O)(=O)OC[C@H]1C[C@@H](Nc2ncncc2C(=O)c2cc3c(s2)CCC[C@@]32OCCc3ccc(Cl)cc32)C[C@@H]1O` [Compound 221] yielded an IC50 greater than 200 nM. With `NS(=O)(=O)OC[C@H]1C[C@@H](Nc2ncncc2C(=O)c2cc3c(s2)CCC[C@]32OCCc3ccc(Cl)cc32)C[C@@H]1O` [Compound 222] the IC50 was no more than 50 nM. For `Cc1ccc2c(c1)[C@@]1(CCc3sc(C(=O)c4cncnc4N[C@@H]4C[C@H](COS(N)(=O)=O)[C@@H](O)C4)cc31)NCC2` [Compound 223], the IC50 was 50 to 200 nM. `NS(=O)(=O)OC[C@H]1C[C@@H](Nc2ncncc2C(=O)c2cc3c(s2)CC[C@]32NCCc3ccc(C4CC4)cc32)C[C@@H]1O` [Compound 224] gave an IC50 of 50 to 200 nM. Compound `COc1ccc2c(c1)[C@@]1(CCc3sc(C(=O)c4cncnc4N[C@@H]4C[C@H](COS(N)(=O)=O)[C@@H](O)C4)cc31)NCC2` [Compound 225] has an IC50 of 50 to 200 nM. `NS(=O)(=O)OC[C@H]1C[C@@H](Nc2ncncc2C(=O)c2cc3c(s2)CC[C@]32NCCc3ccc(C(F)(F)F)cc32)C[C@@H]1O` [Compound 226] showed an IC50 of 50 to 200 nM. `NS(=O)(=O)OC[C@H]1C[C@@H](Nc2ncncc2C(=O)c2cc3c(s2)CC[C@]32NCCc3cc(F)c(F)cc32)C[C@@H]1O` [Compound 227] gave an IC50 of no more than 50 nM. Compound `NS(=O)(=O)OC[C@H]1C[C@@H](Nc2ncncc2C(=O)c2cc3c(s2)CC[C@]32NCCc3cc(F)c(Cl)cc32)C[C@@H]1O` [Compound 228] has an IC50 of no more than 50 nM. Compound `NS(=O)(=O)OC[C@H]1C[C@@H](Nc2ncncc2C(=O)c2cc3c(s2)CC[C@]32NCCc3cc(Cl)c(Cl)cc32)C[C@@H]1O` [Compound 229] has an IC50 of no more than 50 nM. Compound `Cc1cc2c(cc1Cl)[C@@]1(CCc3sc(C(=O)c4cncnc4N[C@@H]4C[C@H](COS(N)(=O)=O)[C@@H](O)C4)cc31)NCC2` [Compound 230] has an IC50 of no more than 50 nM. `N#Cc1cc2c(cc1Cl)[C@@]1(CCc3sc(C(=O)c4cncnc4N[C@@H]4C[C@H](COS(N)(=O)=O)[C@@H](O)C4)cc31)NCC2` [Compound 231] gave an IC50 of no more than 50 nM. In the case of `COc1cc2c(cc1Cl)[C@@]1(CCc3sc(C(=O)c4cncnc4N[C@@H]4C[C@H](COS(N)(=O)=O)[C@@H](O)C4)cc31)NCC2` [Compound 232], the IC50 is reported as 50 to 200 nM. Work on `NS(=O)(=O)OC[C@H]1C[C@@H](Nc2ncncc2C(=O)c2cc3c(s2)CC[C@]32NCCc3cc(F)c(Cl)c(F)c32)C[C@@H]1O` [Compound 233] yielded an IC50 of no more than 50 nM. `NS(=O)(=O)OC[C@H]1C[C@@H](Nc2ncncc2C(=O)c2cc3c(s2)CC[C@]32NCCc3cc(Cl)c(F)cc32)C[C@@H]1O` [Compound 234] was tested, and the IC50 was no more than 50 nM. `NS(=O)(=O)OC[C@H]1C[C@@H](Nc2ncncc2C(=O)c2cc3c(s2)CC[C@]32NCCc3ccncc32)C[C@@H]1O` [Compound 235] showed an IC50 of 50 to 200 nM. `NS(=O)(=O)OC[C@H]1C[C@@H](Nc2ncncc2C(=O)c2cc3c(s2)CC[C@]32NCCc3cc(Cl)ncc32)C[C@@H]1O` [Compound 236] showed an IC50 of 50 to 200 nM. `[2H]C1([2H])Cc2ccc(Cl)cc2[C@@]2(C=Cc3sc(C(=O)c4cncnc4N[C@@H]4C[C@H](COS(N)(=O)=O)[C@@H](O)C4)cc32)N1` [Compound 237] gave an IC50 of no more than 50 nM. `[2H]C1([2H])CN[C@]2(C=Cc3sc(C(=O)c4cncnc4N[C@@H]4C[C@H](COS(N)(=O)=O)[C@@H](O)C4)cc32)c2cc(Cl)ccc21` [Compound 238] gave an IC50 of no more than 50 nM.

Same assay, conditions: 6 h incubation, numeric values, read-out: SUMO IF IC50
Compound `[2H]C1([2H])Cc2ccc(Cl)cc2[C@@]2(CCCc3sc(C(=O)c4cncnc4N[C@@H]4C[C@H](COS(N)(=O)=O)[C@@H](O)C4)cc32)N1` [Compound 198] has an IC50 of 28.8 nM. For `[2H]C1([2H])CN[C@@]2(CCCc3sc(C(=O)c4cncnc4N[C@@H]4C[C@H](COS(N)(=O)=O)[C@@H](O)C4)cc32)c2cc(Cl)ccc21` [Compound 200], the IC50 was greater than 1000 nM. For `[2H]C1([2H])CN[C@]2(CCCc3sc(C(=O)c4cncnc4N[C@@H]4C[C@H](COS(N)(=O)=O)[C@@H](O)C4)cc32)c2cc(Cl)ccc21` [Compound 201], the IC50 was 26.5 nM.

Reference: patent US20260035382A1, “COMPOUNDS AS SUMO ACTIVATING ENZYME INHIBITORS” (WIGEN BIOMEDICINE TECHNOLOGY (SHANGHAI) CO., LTD., priority 2022, published 2026)
